PubChem BioAssay (NCI)
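Protocol summary: plate cells (96-well), add compound at 5 concentrations, incubate 48 h, interpolate endpoints linearly. TGI is the concentration that stops growth completely.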

Assays:
Experiment in all cases: NCI anticancer screen, dose series, 48 h
K-562 leukemia = system: K-562 leukemia
SNB-19 CNS = system: SNB-19 CNS
SF-268 CNS = system: SF-268 CNS
BT-549 breast = system: BT-549 breast
MDA-MB-231 breast = system: MDA-MB-231 breast
MALME-3M melanoma = system: MALME-3M melanoma
UACC-257 melanoma = system: UACC-257 melanoma
SN12C renal = system: SN12C renal
OVCAR-5 ovarian = system: OVCAR-5 ovarian
HT29 colon = system: HT29 colon
CCRF-CEM leukemia = system: CCRF-CEM leukemia
NCI-H226 lung = system: NCI-H226 lung
CAKI-1 renal = system: CAKI-1 renal

Compound	TGI (K-562 leukemia) [µM]	TGI (SNB-19 CNS) [µM]	TGI (SF-268 CNS) [µM]	TGI (BT-549 breast) [µM]	TGI (MDA-MB-231 breast) [µM]	TGI (MALME-3M melanoma) [µM]	TGI (UACC-257 melanoma) [µM]	TGI (SN12C renal) [µM]	TGI (OVCAR-5 ovarian) [µM]	TGI (HT29 colon) [µM]	TGI (CCRF-CEM leukemia) [µM]	TGI (NCI-H226 lung) [µM]	TGI (CAKI-1 renal) [µM]
Cc1n[nH]c(=O)c2c3c([nH]c12)-c1ccccc1C3	> 100	> 100	> 100	> 100	> 100	> 100	> 100	> 100	> 100	> 100	> 100	> 100	> 100
Cc1cccc(NC(=S)NNC(=O)c2cc(-c3ccccc3)nc3ccccc23)c1	> 100	> 100	> 100	> 100	95	83.8	> 100	> 100	> 100	> 100	35.4	> 100	72.4
COc1ccc(Cl)cc1NC(=O)O/N=C(\Cl)C(C)C	7.59	> 61.7	47.4	6.9	15.1	5.28	35.9	23.4	34.2	43.8	> 29.7	33.2	3.24
CCc1nnc2sc(-c3ccc(-c4ccccc4[N+](=O)[O-])o3)nn12	> 100	> 100	> 100	> 100	> 100	> 100	> 100	> 100	> 100	> 100	> 100	44	> 100
O=C1N[C@@H]([C@H]2CC[C@H](Cl)CN2)C(=O)N[C@H]1[C@H]1CC[C@H](Cl)CN1	227	104	51.5	4.27	6.43	8.59	15.1	18.9	9.05	32.1	33.4	11.6	3.06
COc1cc2c(c(O)c1OC)C(O)C1CCC(=O)N1C2c1ccc2c(c1)OCO2 (centres undefined)	> 100	> 100	> 100	> 100	> 100	> 100	> 100	> 100	> 100	> 100	> 100	> 100	> 100
Cc1[nH]c2c(C)c3c([nH]c4ccc(Cl)cc43)c(C)c2c(=O)c1C	> 100	> 100	> 100	> 100	7.54	72.8	> 100	15.1	12.4	12.8	18.1	24.2	40.2
COc1ccc(/C=N/n2c(-c3ccccc3)n[nH]c2=O)c(OC)c1	> 100	50.1	71.9	> 44.6	> 100	> 100	> 100	> 100	> 100	76.3	> 100	> 100	> 100
O=C1c2ccccc2C(=O)c2c1ccc1c3ccccc3n(-c3ccccc3)c21	29.8	> 100	54	51.3	77.7	44.6	41.7	32.3	47	29.2	14.5	44.1	35.1
CCOC(=O)c1cccc(N=NNc2cccc(C(=O)OCC)c2)c1	> 100	46.2	80.8	> 100	53.3	> 100	> 100	73.5	> 100	> 100	> 100	> 100	> 100
CCCCCCCC(=O)NC(C)(C)C(=O)NCC(=O)NC(CC(C)C)C(=O)NC(C)(C)C(=O)NCC(=O)NCC(=O)NC(CC(C)C)C(=O)NC(C)(C)C(=O)NCC(=O)NC(C(=O)NC(CO)CC(C)C)C(C)CC (centres undefined)	9.11	6.83	7.5	6.87	7.38	8.93	7.96	7.7	6.94	7.42	11.7	8.48	8.07
CCC(CCCC[C@H]1CC[C@@H]2CC(=O)C[C@H]12)OC (some centres undefined)	> 100	> 100	> 100	> 100	> 100	> 100	> 100	> 100	> 100	> 100	> 100	> 100	> 100
NS(=O)(=O)c1ccc(Nc2c3ccccc3nc3c(C(=O)NC(CO)(CO)CO)cccc23)cc1	0.642	0.783	0.486	0.322	0.434	0.272	0.346	0.695	0.709	0.45	0.891	0.315	0.525
